Entries after “also recorded” stand apart in the source; their conditions may differ.

The subject of one assay is monocyte. Particulars: Yoshimura, J. Immunol. 145:292-97 (1990); cited from earlier work.
Assay [1] relates to MCP-1RB receptor. It counts as cell-based, human. The method, then:
To investigate inhibition of adenylyl cyclase activity, HEK-293 cells stably-transfected with the MCP-1RB receptor and the MIP-1α/RANTES receptor were grown until confluent in 24-well tissue culture dishes and labeled overnight with 2 μCi/ml of [^3 H]adenine (25-30 Ci/mmol) (New England Nuclear, Boston, Mass.) in MEM-EBSS supplemented with 10% FCS. The next day, the cells were washed by incubation at room temperature with 0.5 ml of serum-free MEM-EBSS media supplemented with 10 mM HEPES, 1 mg/ml BSA, and 1 mM IBMX (3-isobutyl-1-methylxanthine) for 5 min. […] The incubation was terminated by replacement of the media with 1 ml of ice-cold 5% TCA (trichloroacetic acid), 1 mM cAMP, and 1 mM ATP (Sigma). Following incubation at 4° C. for 30 min, the labeled [^3 H]ATP and [3H]cAMP pools were separated and quantitated by chromatography on Dowex 50W (200-400 mesh, hydrogen form, from Sigma) and neutral alumina columns (also from Sigma), as described in Hung, J. Biol. Chem. 267:20831-34 (1992) and Wong, Nature 351: 63-65 (1991). The 1 ml acid supernatant was loaded onto a 1-ml Dowex 50W column and the ATP pool eluted with 3 ml of H2 O. The Dowex 50W columns were then placed over 1-ml alumina columns, and 10 ml of H2 O was added to the Dowex resin and the eluant allowed to drop directly onto the neutral alumina. The cAMP pool was then eluted directly from the alumina with 5 ml of 0.1M imidazole/0.01mM sodium azide. The [^3 H]ATP and [^3 H]cAMP fractions were counted by liquid scintillation spectroscopy. The cAMP pool for each sample was normalized to its own ATP pool and expressed as a ratio by the equation (cAMP cpms/ATP cpms)×100. In each experiment full dose-response curves were generated and expressed as a percent of the forskolin control.
(§1) Inhibition of MCP-1RB receptor activation by bordetella pertussis toxin was investigated. Pertussis toxin (List Biological Labs, Inc., Campbell, Calif.) was dissolved in 0.01M sodium phosphate, pH 7.0, 0.05M sodium chloride and diluted into normal serum containing media at final concentrations of 0.1 ng/ml to 100 ng/ml, and incubated with cells overnight (14-16 h) at 37° C. The conditions of the Pertussis toxin treatment of the 293 cells were identical for calcium fluorimetric and adenylyl cyclase experiments. In the adenylyl cyclase experiments, the Pertussis toxin was added at the same time as [^3 H]adenine.
(§2) Dose response curves generated in the calcium fluorimetric and adenylyl cyclase inhibition assays were fit by a nonlinear least squares program to the logistic equation:
(§3) Effect=max effect/[1+(EC50 /(agonist)^n)]
(§4) where n and EC50 represent the Hill coefficient and the agonist concentration that elicited a half-maximal response, respectively, and were derived from the fitted curve. Curve fitting was done with the computer program "Prism" (by Graph Pad, San Diego, Calif.). Results represent the mean ±SE. The 95% confidence intervals (CI) of the EC50 and IC50 values, when given, were calculated from the log EC50 and IC50 values, respectively.

Assay [2] concerns MCP-1RB receptor. The assay can be described thus: Intracellular calcium mobilization (indo-1) in stably transfected MCP-1RB/293 cells. It counts as cell-based, human. The conditions noted are these: MCP-1RB/293 cells. How it is done: Calcium mobilization in 293 cells was then investigated. Transfected HEK-293 cells were grown until confluent, trypsinized briefly, washed with phosphate buffered saline containing 1 mg/ml BSA (PBS-BSA), and resuspended in serum-free MEM-EBSS supplemented with 1 mg/ml BSA and 10 mM HEPES (pH 7.0) at a density of 2×10^7 cells/ml. The cells were incubated in the dark at 37° C. for 20 min in the presence of 5-10 μg/ml indo-1 AM (Molecular Probes, Inc., Eugene, Oreg.). Nine volumes of PGS-BSA were added, and the cells were incubated for an additional 10 min at 37° C., pelleted by centrifugation, and washed twice with 50 ml of the PBS-BSA solution. Washed, indo-1-loaded cells were then resuspended in Hank's Balanced Salt Solution (1.3 mM Ca^2+) supplemented with 1 mg/ml BSA (HBS-BSA) at a density of approximately 0.5×10^6 cells/ml at room temperature. To measure intracellular calcium ([Ca^2+ ]i), 0.5 ml of the cell suspension was placed in a quartz cuvette in a Hitachi F-2000 fluorescence spectrophotometer. […] Intracellular calcium was measured by excitation at 350 nm and fluorescence emission detection at 490 nm (F1) and 410 nm (F2) wavelengths. The [Ca^2+ ]i was estimated by comparing the 490/410 fluorescence ratio after agonist application (R) to that of calibration ratios measured at the end of each run, according to the equation:
[Ca^2+ ]i =Kd ×[(R--Rmin)/(Rmax
where Rmax and Rmin represent the fluorescence ratio under saturating (1.3 mM Ca^2+) and nominally free (10 mM EGTA, Sigma Chemical Co.) calcium conditions, Kd is the dissociation constant of calcium for indo-1, R is the fluorescence ratio, and Sf2/Sb2 is the fluorescence ratio of free and bound indo-1 dye at 410 nm. See Thomas, AP and Delaville, F (1991) in Cellular Calcium, a Practical Approach, Oxford Univ. Press, pp. 1-54.
To quantirate calcium responses, MCP-1 dose response curves were generated in each experiment and the results were expressed as a percent of the maximum calcium signal (at 300 nM MCP-1) measured in that experiment. The changes in [Ca^2+ ]i levels in response to each concentration of agonist were determined by subtracting the baseline from peak [Ca^2+ ]i levels, which were determined by averaging 5 seconds of data prior to agonist addition and surrounding the peak response, respectively. In experiments done to determine the role of extracellular calcium, 3 mM EGTA was added 60-90 seconds prior to MCP-1. […] All experiments were performed at room temperature.
as §1, §2, §3, §4

For assay [3], the system named is untransfected or pcDNA3 transfected 293 cell controls. The assay can be described thus: cAMP formation in untransfected or pcDNA3 transfected 293 cell controls. It counts as cell-based, human. The conditions noted are these: cells without receptor. (Cyclic AMP is a second messenger, typically raised through Gs and lowered through Gi signalling.)
For a further assay, the system named is MM6 cells. In words: MCP-1 induced calcium flux in MM6 cells (calcium efflux assay). It counts as cell-based, human. How it is done:
(§5) Because monocytes are difficult to isolate in usable quantity and express less than 2000 high affinity MCP-1 binding sites per cell, a cultured cell line that responded well to MCP-1 had to be identified. Using the calcium effiux assay as described in Vu, Cell 64:1057-68(1991), MCP-1 induced calcium fluxes in various cell lines were measured. […] In contrast, a dose-dependent calcium flux was detected in MM6 cells, with half maximal stimulation at 4nM MCP-1.
Background: Calcium assays in cells follow changes in intracellular calcium, usually with a dye or a luminescent sensor.

The subject of assay [4] is undifferentiated human HL-60 cells. The assay can be described thus: MCP-1 induced calcium flux in HL-60 cells. It counts as cell-based. Particulars: undifferentiated HL-60 cells. How it is done:
as §5

Another assay deals with MIP-1α/RANTES receptor. The assay can be described thus: Ca45 efflux assay in Xenopus oocytes, MIP-1α/RANTES receptor examined in parallel. It counts as cell-based.

Turning to “monocyte chemoattractant protein-1 [MCP-1]”, the “EC50 for monocyte chemotaxis” value with monocyte is “subnanomolar”. In addition, the “selectivity for the MCP-1 receptor” value with MCP-1RB receptor [1] is “at least 9000 fold”. In addition, in the assay with MCP-1RB receptor [1] (co-addition with forskolin), the “block of forskolin-induced increase of cAMP” value amounted to 78%. The “reduction of basal cAMP accumulation” value in the assay on MCP-1RB receptor [1] (no forskolin, p<0.01) came out at 55%. For the same substance, in the assay with MCP-1RB receptor [2], the “concentration giving small but reproducible calcium signals” value turned out to be 100 pM, the “homologous desensitization to a second challenge with MCP-1” value is given as “refractory to activation by a second challenge; also recorded: desensitized the cells to a second addition” and the “time to peak of calcium transients after addition” value lay in the range of 4 to 8 s. For the same substance, in the assay with MCP-1RB receptor [2] (average of four full dose-response curves), the EC50 is 2 to 4 nM. Moreover, the “effect on cAMP formation” value in assay [3] is on record as “neither stimulated nor inhibited”. The EC50 in the assay with MM6 cells (dose-dependent calcium flux, read-out: half maximal stimulation of calcium flux) is 4 nM. Also, the “effect of prior exposure to the chemokine on the calcium response to the other chemokine” value in the assay on MM6 cells (label = chemokine given first, MCP-1 versus RANTES (or MIP-1α)) was “partially blocked”. For the same substance, the “MCP-1 induced calcium flux” value in assay [4] is reported as “No calcium flux was detected”. The “receptor signaling in response to chemokine” value in the assay on MIP-1α/RANTES receptor is “not to MCP-1”.

The values are drawn from patent US5707815A, “Mammalian monocyte chemoattractant protein receptors and assays using them” (Regents of the University of California, priority 1995, dated 1998).
